Reference: US20140228287A1, “1-[(3-CYANO-PYRIDIN-2-YL)METHYL]-3-METHYL-7-(2-BUTYN-1-YL)-8-[3-(R)-AMINO-PIPERIDIN-1-YL]-AXANTHINE FOR THE TREATMENT OF A METABOLIC DISORDER OF A PREDOMINANTLY CARNIVOROUS NON-HUMAN ANIMAL” (BOEHRINGER INGELHEIM VETMEDICA GMBH, priority 2010, published 2014)
Where a name gives a salt, the structure may show the parent alone. Read-outs that look alike come from different tables or passages of the source.

How the values were obtained:
[1] = molecular target: alanine-amino-peptidase (Homo sapiens, UniProt P15144); test: In vitro selectivity, human proteases: alanine-amino-peptidase; format: biochemical; conditions: up to 100 μM
alanine-amino-peptidase, sequence (P15144 whole entry): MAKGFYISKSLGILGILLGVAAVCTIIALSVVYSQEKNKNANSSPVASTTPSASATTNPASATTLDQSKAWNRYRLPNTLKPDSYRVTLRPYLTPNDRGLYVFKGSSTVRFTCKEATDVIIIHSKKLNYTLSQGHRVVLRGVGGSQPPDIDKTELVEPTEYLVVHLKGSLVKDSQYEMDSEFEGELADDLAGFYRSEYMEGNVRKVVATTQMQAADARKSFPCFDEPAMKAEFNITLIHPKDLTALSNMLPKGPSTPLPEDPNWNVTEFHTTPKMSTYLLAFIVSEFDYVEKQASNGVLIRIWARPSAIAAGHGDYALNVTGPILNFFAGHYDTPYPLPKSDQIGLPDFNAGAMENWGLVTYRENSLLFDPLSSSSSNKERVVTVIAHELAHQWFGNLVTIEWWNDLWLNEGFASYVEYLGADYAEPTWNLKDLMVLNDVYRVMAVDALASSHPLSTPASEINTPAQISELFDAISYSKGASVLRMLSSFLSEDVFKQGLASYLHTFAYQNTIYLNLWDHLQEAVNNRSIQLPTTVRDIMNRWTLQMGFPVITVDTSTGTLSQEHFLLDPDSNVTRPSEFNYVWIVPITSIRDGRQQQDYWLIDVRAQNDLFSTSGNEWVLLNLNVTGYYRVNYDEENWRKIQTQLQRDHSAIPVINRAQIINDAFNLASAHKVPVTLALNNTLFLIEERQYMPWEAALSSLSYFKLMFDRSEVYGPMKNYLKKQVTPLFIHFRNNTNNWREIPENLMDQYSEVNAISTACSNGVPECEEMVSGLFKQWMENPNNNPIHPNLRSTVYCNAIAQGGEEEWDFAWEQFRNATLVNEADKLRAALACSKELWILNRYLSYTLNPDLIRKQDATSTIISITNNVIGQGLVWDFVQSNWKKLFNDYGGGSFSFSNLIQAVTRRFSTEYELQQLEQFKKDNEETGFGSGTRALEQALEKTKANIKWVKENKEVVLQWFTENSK
Source text: (§1) In order to determine the in vitro selectivity of 1-[(3-cyano-pyridin-2-yl)methyl]-3-methyl-7-(2-butyn-1-yl)-8-[3-(R)-amino-piperidin-1-yl]-xanthine, the ability of this compound to inhibit a number of human proteases was investigated as described in Thomas et al. (2008), J. Pharmacol. Exp. Ther., vol. 325, p. 175-182, chapter In vitro DPP-4 Inhibition Assay, p. 176.

[2] = molecular target: DPP-II (Homo sapiens, UniProt Q9UHL4); test: In vitro selectivity, human proteases: DPP-II; format: biochemical; conditions: up to 100 μM
Source text: as §1

[3] = molecular target: DPP IV (Homo sapiens, UniProt P27487); test: In vitro DPP IV inhibition; format: biochemical; conditions: for IC50: in vitro
DPP IV (Homo sapiens, UniProt P27487), sequence (P27487 whole entry, species assumed): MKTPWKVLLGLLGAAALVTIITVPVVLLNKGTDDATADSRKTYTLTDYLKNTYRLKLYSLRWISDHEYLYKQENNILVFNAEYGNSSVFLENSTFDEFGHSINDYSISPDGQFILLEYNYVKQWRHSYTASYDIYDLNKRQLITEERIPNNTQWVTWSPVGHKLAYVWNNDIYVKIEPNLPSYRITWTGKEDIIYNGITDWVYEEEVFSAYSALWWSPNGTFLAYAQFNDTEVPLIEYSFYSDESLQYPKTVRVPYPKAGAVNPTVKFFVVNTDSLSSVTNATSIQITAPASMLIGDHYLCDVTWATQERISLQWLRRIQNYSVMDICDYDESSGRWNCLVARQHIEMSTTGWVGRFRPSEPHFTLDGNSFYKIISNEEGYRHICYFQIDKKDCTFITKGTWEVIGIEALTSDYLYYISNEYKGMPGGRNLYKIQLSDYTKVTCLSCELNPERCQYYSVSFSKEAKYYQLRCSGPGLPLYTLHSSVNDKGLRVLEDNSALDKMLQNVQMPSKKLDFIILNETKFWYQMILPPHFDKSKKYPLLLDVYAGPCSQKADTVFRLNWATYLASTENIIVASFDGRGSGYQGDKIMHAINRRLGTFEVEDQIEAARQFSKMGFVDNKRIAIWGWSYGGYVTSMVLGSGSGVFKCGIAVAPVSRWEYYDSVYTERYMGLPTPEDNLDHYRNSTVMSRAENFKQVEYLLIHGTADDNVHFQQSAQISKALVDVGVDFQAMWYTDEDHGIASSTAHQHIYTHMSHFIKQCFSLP
Description: Studies were also conducted to assess the inhibitory effect of this compound on plasma DPP IV activity in several species.

[4] = tested on: diabetic db/db mice; test: Delayed OGTT in diabetic db/db mice; format: in vivo, mouse; conditions: 1 mg/kg 16 hours before the test
Description: A delayed oral glucose tolerance test (OGTT) was applied to diabetic db/db mice and diabetic ZDF rats, as describes in the following.
Male obese diabetic db/db mice (C57BL/KSJ@Rj-db) were obtained from Janvier (France). Animals were fed ad libitum with a standard pelleted diet (Diet No. 3438 [containing 19% protein, 4.5% fat], Provimi Kliba, Switzerland) and had free access to water. Animals were housed in groups with a 12 h/12 h light/dark cycle (lights out between 6 p.m. and 6 a.m.). The mice used for these experiments were between 9 and 10 weeks of age.
The day before the OGTT, a blood sample from db/db mice or ZDF rats fasted for 2 hours was obtained by cutting the tip of the tail without anaesthesia and the animals were randomized for glucose (n=7 per group). The animals were fed again for 2 hours and then orally administered with either vehicle or 1-[(3-cyano-pyridin-2-yl)methyl]-3-methyl-7-(2-butyn-1-yl)-8-[3-(R)-amino-piperidin-1-yl]-xanthine monohydrochloride at doses between 0.3 and 3 mg/kg bw. A basal blood sample (pre-load) was obtained the next morning after overnight fasting for 16 hours by cutting the tip of the tail without anaesthesia. […] Additional blood samples were taken from the tip of the tail 30 min, 60 min, 90 min, 120 min, and 180 min after the glucose load, and blood glucose was measured. […]

[5] = molecular target: T1, DPP IV (Felis catus, UniProt Q9N2I7); test: Exploratory single dose PK/PD (0.01/0.1/1.0 mg/kg) in cats: DPP IV activity; format: in vivo; conditions: read-out: DPP IV activity in cat plasma; for response vs control in vivo at 0.01 mg/kg: 0.01 mg/kg single oral; for response vs control in vivo at 0.1 mg/kg: 0.1 mg/kg single oral; for response vs control in vivo at 1 mg/kg: 1 mg/kg single oral
T1 construct: Blood samples for the determination of this compound and DPP IV activity were collected; from tissue; host or cells: plasma of domestic short hair / purpose-bred cats dosed orally
T1 sequence (Q9N2I7 38-765 limits assumed): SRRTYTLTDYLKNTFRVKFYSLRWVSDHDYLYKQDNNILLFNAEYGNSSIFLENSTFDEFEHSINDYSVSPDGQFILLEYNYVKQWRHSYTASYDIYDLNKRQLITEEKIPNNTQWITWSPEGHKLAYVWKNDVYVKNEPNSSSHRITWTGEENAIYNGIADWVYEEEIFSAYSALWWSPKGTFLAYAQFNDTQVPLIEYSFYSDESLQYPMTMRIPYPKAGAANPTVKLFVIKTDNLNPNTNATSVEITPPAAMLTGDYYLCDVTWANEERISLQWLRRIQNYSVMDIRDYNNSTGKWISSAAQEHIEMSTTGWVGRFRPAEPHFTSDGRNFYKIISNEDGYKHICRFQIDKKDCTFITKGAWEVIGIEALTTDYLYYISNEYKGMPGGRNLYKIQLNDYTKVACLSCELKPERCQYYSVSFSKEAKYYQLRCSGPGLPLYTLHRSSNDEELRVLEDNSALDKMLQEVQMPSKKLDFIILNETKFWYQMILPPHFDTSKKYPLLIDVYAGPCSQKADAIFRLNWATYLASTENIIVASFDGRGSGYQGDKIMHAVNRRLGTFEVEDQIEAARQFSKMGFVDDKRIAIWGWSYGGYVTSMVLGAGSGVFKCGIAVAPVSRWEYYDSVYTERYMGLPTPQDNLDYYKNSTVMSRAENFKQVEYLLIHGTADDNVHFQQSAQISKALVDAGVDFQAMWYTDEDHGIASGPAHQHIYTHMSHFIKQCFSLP
Description: The investigation of the PK/PD values was conducted in the same way as in Example 7, with the variations described below.
The aim of this study was to investigate the PK/PD of 1-[(3-cyano-pyridin-2-yl)methyl]-3-methyl-7-(2-butyn-1-yl)-8-[3-(R)-amino-piperidin-1-yl]-xanthine monohydrochloride in the cat after a single oral administration of 0, 0.01, 0.1 and 1.0 mg/kg body weight of this compound (dosages were based on the free base).
Eleven clinically healthy male adult domestic short hair cats with a body weight range of 3.5-5.0 kg were used in this study. All animals were treated orally once via a stomach tube. Blood samples were drawn at 0 h (i.e. prior to treatment), 30 min as well as 1, 2, 4, 8, 12, 24, 36, 48, 72 and 96 h after treatment and the activity of DPP IV was determined like in Example 6.

[6] = tested on: GLP-1; test: Single dose study (1.0/5.0/10.0 mg/kg) in cats: GLP-1 after feeding; format: in vivo, cat; conditions: single oral 1, 5, 10 mg/kg; feeding at 8 h after treatment
Description: Twelve clinically healthy male adult domestic short hair cats with a body weight range of 3.5-4.7 kg were used in this study. All animals were treated orally once via a stomach tube. Blood samples for pharmacokinetic and pharmacodynamic (DPP IV activity) investigations were drawn at 0 h (i.e. prior to treatment), 30 min as well as 1, 2, 4, 8, 8.5, 9, 12, 24, 36, 48, 72, 84 and 96 h after treatment. Blood samples for pharmacodynamic (glucagon-like peptide 1 concentrations) investigations were drawn at −16 (i.e. prior to feeding), −15.5, −15 h as well as at 8 h (i.e. prior to feeding), 8.5 and 9 h after treatment.

## CC#CCn1c(N2CCC[C@@H](N)C2)nc2c1c(=O)n(Cc1ncccc1C#N)c(=O)n2C [1-[(3-cyano-pyridin-2-yl)methyl]-3-methyl-7-(2-butyn-1-yl)-8-[3-(R)-amino-piperidin-1-yl]-xanthine monohydrochloride]
[1]
  inhibitory effect on alanine-amino-peptidase: did not exert any inhibitory effect
[2]
  inhibitory effect on DPP-II: did not exert any inhibitory effect
[3]; GLP-1 as substrate
  IC50: ~0.18 nM
[3]; dipeptide artificial substrate
  IC50: ~1 nM
[3]; mechanistic studies
  mode of DPP IV inhibition: competitive and reversible inhibitor
[4]
  reduction of glucose AUC in OGTT: 39%
[5]; 0.5 h
  response vs control in vivo at 0.01 mg/kg: 73%
  response vs control in vivo at 0.1 mg/kg: 23%
  response vs control in vivo at 1 mg/kg: 10%
[5]; 1 h
  response vs control in vivo at 0.01 mg/kg: 66%
  response vs control in vivo at 0.1 mg/kg: 17%
  response vs control in vivo at 1 mg/kg: 10%
[5]; 2 h
  response vs control in vivo at 0.01 mg/kg: 71%
  response vs control in vivo at 0.1 mg/kg: 16%
  response vs control in vivo at 1 mg/kg: 8%
[5]; 4 h
  response vs control in vivo at 0.01 mg/kg: 77%
  response vs control in vivo at 0.1 mg/kg: 24%
  response vs control in vivo at 1 mg/kg: 10%
[5]; 8 h
  response vs control in vivo at 0.01 mg/kg: 85%
  response vs control in vivo at 0.1 mg/kg: 39%
  response vs control in vivo at 1 mg/kg: 12%
[5]; 12 h
  response vs control in vivo at 0.01 mg/kg: 88%
  response vs control in vivo at 0.1 mg/kg: 50%
  response vs control in vivo at 1 mg/kg: 15%
[5]; 24 h
  response vs control in vivo at 0.01 mg/kg: 90%
  response vs control in vivo at 0.1 mg/kg: 67%
  response vs control in vivo at 1 mg/kg: 27%
[5]; 36 h
  response vs control in vivo at 0.01 mg/kg: 87%
  response vs control in vivo at 0.1 mg/kg: 83%
  response vs control in vivo at 1 mg/kg: 63%
[5]; 48 h
  response vs control in vivo at 0.01 mg/kg: 88%
  response vs control in vivo at 0.1 mg/kg: 82%
  response vs control in vivo at 1 mg/kg: 72%
[5]; 72 h
  response vs control in vivo at 0.01 mg/kg: 85%
  response vs control in vivo at 0.1 mg/kg: 91%
  response vs control in vivo at 1 mg/kg: 80%
[5]; 96 h
  response vs control in vivo at 0.01 mg/kg: 90%
  response vs control in vivo at 0.1 mg/kg: 90%
  response vs control in vivo at 1 mg/kg: 86%
[6]
  mean GLP-1 concentration after feeding: an increase of the mean GLP-1 concentration was observed after feeding
